# From patent US20120129892A1, “NOVEL PHARMACEUTICALLY ACCEPTABLE SALTS OF 4-(1H-IMIDAZOL-4-[…])PYRIDINE AND THEIR THERAPEUTICAL USES” (BIOPROJET, priority 2009, published 2012)
# pEC50, pIC50: −log10 of the molar value. Where a name gives a salt, the structure may show the parent alone. Read-outs that look alike come from different tables or passages of the source.
# Assays:
# H3R in brain [1] = target: H3R in brain (Mus musculus, UniProt P58406); settings: mice, oral, immethridine base and salts at 0.3 mg/kg, imetit: maximal reduction
# [2] = sleep EEG recording in rats (24-hr recordings); type: in vivo; settings: for tolerance to sleep-promoting / hypnotic effect: repeated o.d. administration over several days
# Description: While the sleep-promoting activity of several other H3R agonists has been previously described (Lin et al., Brain Res., 1990, 523, 325-330; Monti et al., Neuropsychopharmacology, 1996, 15, 31-35), much higher dosages—by two to three orders of magnitude—were required to obtain this effect.
# This is in contrast with the long-lasting disorders of circadian rhythms, namely the relative insomnia, which occur at the interruption of a repeated treatment with benzodiazepines or imidazopyridines such as Zolpidem.
# H3R in brain [3] = assay: reduction of brain tele methylhistamine levels after oral dosing (ED50)
# [4] = withdrawal symptoms after interruption of repeated Zolpidem treatment in rats; type: in vivo; settings: 18 days 20 mg/kg o.d. oral Zolpidem followed by 0.3 mg/kg, p.o.
# Description: (§1) Accordingly, rats treated orally for 18 days by 20 mg/kg o.d.
# H3R = target: T1, H3R (Rattus norvegicus, UniProt Q9QYN8); settings: rats, intraperitoneal, doses as high as 10 mg/kg necessary (Celanire et al.); cited from earlier work
# T1 construct: host or cells: living rats (brain)
# hERG potassium channel [5] = target: T2, hERG potassium channel (Homo sapiens, UniProt Q12809); assay: potassium hERG current, functional patch clamp assay in HEK-293 cells; settings: concentrations up to 10 μM
# [6] = general tolerance in rodents; type: in vivo; settings: doses as high as 100 mg/kg
# Description: as §1
# [7] = AUCs of unchanged drug and metabolite in rat brain and blood; settings: Sprague-Dawley, po, 1 mg/kg
# [8] = test system: human CYP 450 isoforms (3A4, 2C9, 2E1, 2B6) and UGTs; assay: induction of CYP 450 isoforms and UGTs in human hepatocytes; type: in vitro ADME; settings: concentrations over 3 orders of magnitude higher than expected therapeutic concentrations
# [9] = target: recombinant human cytochrome P450 3A4 (Homo sapiens, UniProt P08684); assay: inhibition of recombinant human cytochrome P450 3A4; type: in vitro ADME; settings: read-out: IC50 at 3A4 isoform
# Description: (§2) These values are over 3 orders of magnitude higher than the expected plasma or tissue concentrations at therapeutic dosage.
# [10] = target: recombinant human cytochrome P450 2C9 (Homo sapiens, UniProt P11712); assay: inhibition of recombinant human cytochrome P450 2C9; type: in vitro ADME; settings: read-out: IC50 at 2C9 isoform
# Description: as §2
# hERG potassium channel [11] = target: T2, hERG potassium channel; assay: [3H]dofetidide binding assay, HEK-293 cells stably expressing hERG; settings: concentrations up to 10 μM
# recombinant hH3R = target: T3, recombinant hH3R (Homo sapiens, UniProt Q9Y5N1); assay: [35S]GTPγS binding activation on recombinant hH3R expressed in HEK 293 cells; type: biochemical
# T3 construct: expressed in transfected cells; host or cells: HEK 293 cells
# [12] = stability on heating at 80° C. during one week, HPLC analysis
# [13] = target: recombinant human cytochrome P450 2D6 (Homo sapiens, UniProt P10635); assay: inhibition of recombinant human cytochrome P450 2D6; type: in vitro ADME; settings: read-out: IC50 at 2D6 isoform
# Description: as §2
# human H3R = human H3R (Homo sapiens, UniProt Q9Y5N1); assay: β arrestin translocation; type: cell-based
# [14] = AUCs of unchanged drug and tele methylated derivative in mouse brain and blood; type: in vivo; settings: 1 mg/kg, p.o.
# human HMT = human HMT (Homo sapiens, UniProt P50135); assay: tele-methylation by HMT, cytosol of fresh human hepatocytes, Lineweaver-Burk analysis; settings: pH 7.4, 20 μM (S)-adenosyl methionine
# [15] = hygroscopy: water uptake in a water-saturated atmosphere at room temperature; type: physicochemical; settings: a few days in water-saturated atmosphere at room temperature, listed as immethridine dioxalate
# Chain of H3R in brain (Mus musculus, UniProt P58406) (P58406 whole entry): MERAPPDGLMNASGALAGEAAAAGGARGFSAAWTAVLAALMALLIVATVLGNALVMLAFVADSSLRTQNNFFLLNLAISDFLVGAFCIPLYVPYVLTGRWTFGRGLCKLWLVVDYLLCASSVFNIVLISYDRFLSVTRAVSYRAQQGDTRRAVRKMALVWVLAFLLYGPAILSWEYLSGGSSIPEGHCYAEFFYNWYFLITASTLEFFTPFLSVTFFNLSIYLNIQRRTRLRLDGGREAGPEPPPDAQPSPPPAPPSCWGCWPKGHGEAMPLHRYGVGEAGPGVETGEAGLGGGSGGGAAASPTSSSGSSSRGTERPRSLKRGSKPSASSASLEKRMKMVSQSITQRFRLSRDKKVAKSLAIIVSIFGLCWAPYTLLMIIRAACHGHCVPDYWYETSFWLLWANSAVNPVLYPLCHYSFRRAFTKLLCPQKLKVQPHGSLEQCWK
# Chain of human HMT (P50135 whole entry): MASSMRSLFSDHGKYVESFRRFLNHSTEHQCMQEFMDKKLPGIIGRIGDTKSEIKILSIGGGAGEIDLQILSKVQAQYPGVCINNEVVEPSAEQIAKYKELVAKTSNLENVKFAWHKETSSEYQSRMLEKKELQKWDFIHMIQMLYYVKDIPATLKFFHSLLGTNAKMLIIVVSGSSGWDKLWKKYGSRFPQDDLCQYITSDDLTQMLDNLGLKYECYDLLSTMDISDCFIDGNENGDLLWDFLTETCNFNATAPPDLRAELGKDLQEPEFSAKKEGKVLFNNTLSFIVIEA
# Chain of human H3R (Q9Y5N1 whole entry): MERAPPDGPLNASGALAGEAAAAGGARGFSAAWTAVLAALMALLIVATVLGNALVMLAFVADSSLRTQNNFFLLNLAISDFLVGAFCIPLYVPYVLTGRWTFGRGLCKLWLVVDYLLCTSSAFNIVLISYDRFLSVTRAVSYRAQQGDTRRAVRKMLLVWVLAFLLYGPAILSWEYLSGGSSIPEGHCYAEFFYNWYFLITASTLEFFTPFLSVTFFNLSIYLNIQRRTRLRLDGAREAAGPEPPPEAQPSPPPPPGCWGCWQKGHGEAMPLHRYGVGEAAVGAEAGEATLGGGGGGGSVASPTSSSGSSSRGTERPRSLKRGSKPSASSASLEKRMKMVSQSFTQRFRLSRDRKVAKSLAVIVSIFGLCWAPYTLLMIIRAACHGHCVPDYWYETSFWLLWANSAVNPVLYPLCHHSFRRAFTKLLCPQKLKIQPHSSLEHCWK
# T3 sequence (Q9Y5N1 whole entry): as above
# T2 sequence (Q12809 whole entry): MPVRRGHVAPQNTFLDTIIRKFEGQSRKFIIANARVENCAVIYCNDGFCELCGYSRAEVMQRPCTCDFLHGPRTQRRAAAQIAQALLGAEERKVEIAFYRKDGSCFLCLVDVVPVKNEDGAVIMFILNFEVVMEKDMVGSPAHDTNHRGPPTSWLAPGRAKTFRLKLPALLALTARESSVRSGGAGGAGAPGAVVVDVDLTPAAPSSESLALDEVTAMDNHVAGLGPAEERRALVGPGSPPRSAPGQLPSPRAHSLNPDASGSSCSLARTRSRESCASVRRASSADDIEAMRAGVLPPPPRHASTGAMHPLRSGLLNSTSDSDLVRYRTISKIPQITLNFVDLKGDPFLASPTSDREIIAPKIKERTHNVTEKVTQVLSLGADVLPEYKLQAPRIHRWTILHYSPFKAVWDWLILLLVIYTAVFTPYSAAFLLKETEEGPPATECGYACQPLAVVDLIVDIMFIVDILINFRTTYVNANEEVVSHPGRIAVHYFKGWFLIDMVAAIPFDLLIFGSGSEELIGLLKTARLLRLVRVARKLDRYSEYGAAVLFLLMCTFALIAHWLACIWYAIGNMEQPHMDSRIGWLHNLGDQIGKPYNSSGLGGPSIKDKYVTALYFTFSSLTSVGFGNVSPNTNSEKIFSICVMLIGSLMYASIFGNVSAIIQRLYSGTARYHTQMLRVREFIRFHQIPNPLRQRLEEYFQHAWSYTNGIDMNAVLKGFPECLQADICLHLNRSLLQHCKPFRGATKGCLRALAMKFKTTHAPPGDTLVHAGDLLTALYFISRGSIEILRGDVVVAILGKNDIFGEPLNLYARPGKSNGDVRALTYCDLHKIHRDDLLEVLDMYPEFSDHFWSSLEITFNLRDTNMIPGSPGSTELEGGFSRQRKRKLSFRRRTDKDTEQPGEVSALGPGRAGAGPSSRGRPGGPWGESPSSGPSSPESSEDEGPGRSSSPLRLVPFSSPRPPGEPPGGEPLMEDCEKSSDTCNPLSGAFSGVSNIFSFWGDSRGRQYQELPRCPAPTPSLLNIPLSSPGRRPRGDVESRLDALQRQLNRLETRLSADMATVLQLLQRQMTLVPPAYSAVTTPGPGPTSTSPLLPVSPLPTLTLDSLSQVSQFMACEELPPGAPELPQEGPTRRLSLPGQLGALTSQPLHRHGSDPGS
# Chain of recombinant human cytochrome P450 2C9 (P11712 whole entry, canonical isoform): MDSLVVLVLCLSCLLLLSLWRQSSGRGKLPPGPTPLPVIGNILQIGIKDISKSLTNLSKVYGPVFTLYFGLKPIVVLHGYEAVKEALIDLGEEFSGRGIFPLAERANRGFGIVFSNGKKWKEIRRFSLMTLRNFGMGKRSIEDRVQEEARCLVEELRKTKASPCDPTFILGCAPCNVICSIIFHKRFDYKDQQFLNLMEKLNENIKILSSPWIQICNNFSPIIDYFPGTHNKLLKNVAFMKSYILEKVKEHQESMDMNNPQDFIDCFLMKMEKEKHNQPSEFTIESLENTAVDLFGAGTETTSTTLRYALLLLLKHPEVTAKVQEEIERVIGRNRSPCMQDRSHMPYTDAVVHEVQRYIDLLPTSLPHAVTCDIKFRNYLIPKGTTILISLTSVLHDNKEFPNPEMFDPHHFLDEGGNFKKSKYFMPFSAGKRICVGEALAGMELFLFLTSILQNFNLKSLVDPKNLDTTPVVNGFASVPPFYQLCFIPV
# Chain of recombinant human cytochrome P450 3A4 (P08684 whole entry, canonical isoform): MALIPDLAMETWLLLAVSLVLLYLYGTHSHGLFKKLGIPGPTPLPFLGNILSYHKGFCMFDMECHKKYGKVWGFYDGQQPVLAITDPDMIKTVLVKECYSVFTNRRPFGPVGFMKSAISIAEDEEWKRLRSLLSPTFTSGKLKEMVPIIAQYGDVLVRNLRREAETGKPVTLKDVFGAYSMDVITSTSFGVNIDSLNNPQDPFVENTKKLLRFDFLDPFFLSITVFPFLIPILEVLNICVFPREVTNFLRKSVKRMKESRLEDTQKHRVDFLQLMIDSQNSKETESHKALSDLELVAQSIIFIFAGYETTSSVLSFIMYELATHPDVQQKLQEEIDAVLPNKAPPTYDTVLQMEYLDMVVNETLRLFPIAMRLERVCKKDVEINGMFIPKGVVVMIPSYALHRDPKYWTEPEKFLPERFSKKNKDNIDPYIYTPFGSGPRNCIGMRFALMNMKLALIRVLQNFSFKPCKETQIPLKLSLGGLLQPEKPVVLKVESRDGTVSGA
# T1 sequence (Q9QYN8 whole entry): as the sequence (P58406 whole entry) above, with A15T, T286A, G290A, H387R, V389I counted along it
# Chain of recombinant human cytochrome P450 2D6 (P10635 whole entry, canonical isoform): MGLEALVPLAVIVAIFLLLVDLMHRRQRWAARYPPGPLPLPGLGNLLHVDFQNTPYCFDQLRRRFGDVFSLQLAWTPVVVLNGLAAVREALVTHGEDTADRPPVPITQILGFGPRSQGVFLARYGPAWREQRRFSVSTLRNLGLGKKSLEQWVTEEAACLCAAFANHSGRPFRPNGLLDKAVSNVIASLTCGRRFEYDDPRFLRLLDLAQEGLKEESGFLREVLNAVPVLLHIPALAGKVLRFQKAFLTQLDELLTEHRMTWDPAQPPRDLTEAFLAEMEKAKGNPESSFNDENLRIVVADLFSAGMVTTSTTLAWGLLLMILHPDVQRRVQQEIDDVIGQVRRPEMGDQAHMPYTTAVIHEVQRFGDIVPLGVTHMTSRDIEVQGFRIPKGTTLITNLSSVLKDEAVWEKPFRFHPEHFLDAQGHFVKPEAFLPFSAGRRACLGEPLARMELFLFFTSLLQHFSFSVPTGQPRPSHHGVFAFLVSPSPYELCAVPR
structure (smiles),measurement,setting,value
c1cc(Cc2cnc[nH]2)ccn1 [Immethridine dihydrochloride],"t-methylhistamine brain level variation vs. control, mean (%)",H3R in brain [1],−37.0%
"c1cc(Cc2cnc[nH]2)ccn1 [BP1.5375, 4-(1H-imidazol-4-yl-methyl)-pyridine]",rebound / sleep pattern upon interruption of repeated treatment,"[2]; after interruption of 6-day treatment with 0.3 mg/kg, p.o.",does not give rise to a rebound phenomenon
same,tolerance to sleep-promoting / hypnotic effect,[2],does not diminish
same,duration of deep SWS (slow wave sleep) period,"[2]; same very low dosages, administered 30 min before start of light-on period",enhanced significantly
same,"ED50, reduction of levels of tele methylhistamine in brain",H3R in brain [3]; given orally to rats or mice,~30 micrograms/kg
same,tele methylhistamine response upon repeated administration,H3R in brain [3]; repeated administration over 7 days,maintained
same,occurrence of withdrawal symptoms after Zolpidem interruption,[4],prevents the occurrence of withdrawal symptoms
same,decrease of histamine in brain,H3R,modestly decrease histamine in brain
same,inhibition of potassium hERG current,hERG potassium channel [5],not to inhibit
same,"t-methylhistamine brain level variation vs. control, mean (%)",H3R in brain [1]; 0.3 mg/kg,−42.1%
same,apparent toxicity sign,[6],does not induce any apparent toxicity sign
same,Kp,[7],2.6
same,"induction of CYP 450 isoforms (3A4, 2C9, 2E1, 2B6) and UGTs",[8],not induced
same,pIC50,[9],4.53
same,pIC50,[10],5.51
same,inhibition of [3H]dofetidide binding,hERG potassium channel [11],not to inhibit
same,pEC50,recombinant hH3R,~9.00
same,intrinsic activity compared with histamine,"recombinant hH3R; [35S]GTPγS binding, hH3R",0.75
same,stability when heated,[12]; listed as immethridine,darkens
same,pIC50,[13],≤ 4.00
same,pEC50,human H3R,~7.77
same,intrinsic activity compared to histamine,human H3R; β arrestin translocation,0.5
same,ratio of brain/blood AUCs,[14],close to unit
"Cc1ccc(-c2nc3ccc(C)cn3c2CC(=O)N(C)C)cc1 [Zolpidem, reference compound]",withdrawal symptoms upon interruption of repeated treatment,"[2]; after interruption of 15-day treatment with 20 mg/kg, p.o.","increases in sleep onset latency, decrease in deep sleep"
same,tolerance to sleep-promoting / hypnotic effect,[2],rapid development of tolerance
c1cc(Cc2c[nH]cn2)ccn1 [BP1.5375 (ditoluenesulfonate salt)],"t-methylhistamine brain level variation vs. control, mean (%)","H3R in brain [1]; listed as Immethridine di p-toluene sulfonate, 0.3 mg/kg",−41.6%
same,Vm,human HMT,0.004 µM/min
c1cc(Cc2c[nH]cn2)ccn1 [BP1.5375 (dibromhydrate salt)],Vm,human HMT,0.004 µM/min
c1cc(Cc2c[nH]cn2)ccn1 [BP1.5375 (alpha keto-glutarate salt)],"t-methylhistamine brain level variation vs. control, mean (%)","H3R in brain [1]; listed as Immethridine alpha-ketoglutarate, 0.3 mg/kg",−46.1%
"c1cc(Cc2cnc[nH]2)ccn1 [BP1.5375 (dioxalate salt), 4-(1H-imidazol-4-ylmethyl)-pyridine dioxalate]","water uptake, % of weight",[15],13-15%
same,stability when heated,"[12]; listed as immethridine dioxalate, dioxalate",no apparent degradation
CS(=O)(=O)O.CS(=O)(=O)O.c1cc(Cc2c[nH]cn2)ccn1 [Immethridine methane sulfonate],"t-methylhistamine brain level variation vs. control, mean (%)",H3R in brain [1],−40.0%
